Experimental data from patent publication US20230146455A1, “TREATMENT OF INFLAMMATORY DISEASES WITH PEPTIDES AND PHARMACEUTICAL COMPOSITIONS” (Yuyu Pharma, Inc., priority 2020, published 2023).
Several values for one entry are separate records, joined by “and”; a condition that tells them apart may be missing. Equal entries are not always repeated. Where a SMILES comes first, the peptide text is derived from it. [ ]: non-standard residue; d: D form. Hyp = O=C(O)[C@@H]1C[C@@H](O)CN1

Test system: IL-1 alpha/IL-1F1
Test: Example 8 main study Luminex, LPS hPBMCs: IL-1 alpha/IL-1F1
Format: cell-based, human
Method: Human PBMCs were pretreated with YY-101, YDE-011, YDE-043 or reference compound; Xiidra® at various concentration (ranging from […] to 500 nM) for 2 h before stimulation. An equal volume of 0.5% DMSO was used as a vehicle control. Then, the cells were treated with LPS at 5 ug/ml, which was selected based on the pilot study. The supernatants from treated cells were harvested at 24 h and placed in a 96 well for Luminex cytokine & chemokine profiling using a Luminex 200 multiplex assay (Luminex; R&D system, USA).
The main study arm with triplicate wells per group in a 24-well plate: • 1. Blank • 2. PBMC: 0.5% DMSO • 3. PBMC+LPS (5 ug/ml) • 4. PBMC+YY-101 500 nM • 5. PBMC+YY-101 50 nM • 6. PBMC+YY-101 5 nM • 7. PBMC+YY-101 0.5 nM • 8. PBMC+LPS (5 ug/ml)+Xiidra® 500 nM • 9. PBMC+LPS (5 ug/ml)+Xiidra® 50 nM • 10. PBMC+LPS (5 ug/ml)+Xiidra® 5 nM • 11. PBMC+LPS (5 ug/ml)+Xiidra® 0.5 nM • 12. PBMC+LPS (5 ug/ml)+Xiidra® 0.05 nM • 13. PBMC+LPS (5 ug/ml)+Xiidra® 0.005 nM • 14. PBMC+LPS (5 ug/ml)+YY-101 500 nM • 15. PBMC+LPS (5 ug/ml)+YY-101 50 nM • 16. PBMC+LPS (5 ug/ml)+YY-101 5 nM • 17. PBMC+LPS (5 ug/ml)+YY-101 0.5 nM • 18. PBMC+LPS (5 ug/ml)+YY-101 0.05 nM • 19. PBMC+LPS (5 ug/ml)+YY-101 0.005 nM • 20. PBMC+LPS (5 ug/ml)+YDE-011 500 nM • 21. PBMC+LPS (5 ug/ml)+YDE-011 50 nM • 22. PBMC+LPS (5 ug/ml)+YDE-011 5 nM • 23. PBMC+LPS (5 ug/ml)+YDE-011 0.5 nM • 24. PBMC+LPS (5 ug/ml)+YDE-011 0.05 nM • 25. PBMC+LPS (5 ug/ml)+YDE-011 0.005 nM • 26. PBMC+LPS (5 ug/ml)+YDE-043 500 nM • 27. PBMC+LPS (5 ug/ml)+YDE-043 50 nM • 28. PBMC+LPS (5 ug/ml)+YDE-043 5 nM • 29. PBMC+LPS (5 ug/ml)+YDE-043 0.5 nM • 30. PBMC+LPS (5 ug/ml)+YDE-043 0.05 nM • 31. PBMC+LPS (5 ug/ml)+YDE-043 0.005 nM
Multiplex assay was used to measure 30 cytokines and chemokines. The 1:200 diluted cell supernatant and serial dilution of the standard were dispensed into a 96 well plate at 50 ul/well. Then, the pre-mixed cocktail of antibody-coated magnetic beads was dispensed at 50 ul/well and incubated at room temperature for 2 h in a horizontal orbital microplate shaker at 800±500 rpm. The beads were washed using a magnetic device to prevent loss. The biotin-antibody was dispensed in 50 ul of each well and incubated at room temperature for 1 h in a shaker at 800±500 rpm. After washing, streptavidin-PE was added at 50 ul/well and incubated at room temperature for 30 min in a shaker under the same conditions. Finally, after washing, wash buffer (100 ul/well) was added to the plate and incubated in a shaker for 2 min. The Luminex™ 200 setting were set according to the manufacturer's protocol. The data was calculated with a standard five-parameter logistic nonlinear regression analysis of the data (xPonent software 4.2, USA). Results were presented as concentration (ng/ml or pg/ml).

[1] = PBMC + LPS(5 ug/ml) + test article 0.005 nM, Mean
[2] = PBMC + LPS(5 ug/ml) + test article 0.005 nM, individual replicates
[3] = PBMC + LPS(5 ug/ml) + test article 0.05 nM, Mean
[4] = PBMC + LPS(5 ug/ml) + test article 0.05 nM, individual replicates
[5] = PBMC + LPS(5 ug/ml) + test article 0.5 nM, Mean
[6] = PBMC + LPS(5 ug/ml) + test article 0.5 nM, individual replicates
[7] = PBMC + LPS(5 ug/ml) + test article 5 nM, Mean
[8] = PBMC + LPS(5 ug/ml) + test article 5 nM, individual replicates
[9] = PBMC + LPS(5 ug/ml) + test article 50 nM, Mean
[10] = PBMC + LPS(5 ug/ml) + test article 50 nM, individual replicates
[11] = PBMC + LPS(5 ug/ml) + test article 500 nM, Mean
[12] = PBMC + LPS(5 ug/ml) + test article 500 nM, individual replicates
[13] = PBMC + test article 0.5 nM, no LPS, Mean
[14] = PBMC + test article 0.5 nM, no LPS, individual replicates (1st, 2nd)
[15] = PBMC + test article 5 nM, no LPS, Mean
[16] = PBMC + test article 5 nM, no LPS, individual replicates (1st, 2nd)
[17] = PBMC + test article 0.05 uM, no LPS, Mean
[18] = PBMC + test article 0.05 uM, no LPS, individual replicates (1st, 2nd)
[19] = PBMC + test article 50 nM, no LPS, Mean
[20] = PBMC + test article 50 nM, no LPS, individual replicates (1st, 2nd)
[21] = PBMC + test article 500 nM, no LPS, Mean
[22] = PBMC + test article 500 nM, no LPS, individual replicates (1st, 2nd)

## CC(C)C[C@H](NC(=O)[C@H](CCC(N)=O)NC(=O)CNC(=O)[C@@H]1C[C@@H](O)CN1)C(=O)NCC(=O)O [YDE-043] (H-[Hyp]GQLG-OH; N-terminus and C-terminus assumed)
LPS 5 ug/mL 24 hrs
  LPS-induced IL-1a levels (in words): significantly lowered
[1]
  IL-1 alpha/IL-1F1 Concentration: 489.6 pg/mL
  IL-1 alpha/IL-1F1 MFI: 30.5
[2]
  IL-1 alpha/IL-1F1 Concentration: 383.2 pg/mL and 490.5 pg/mL and 595.1 pg/mL
  IL-1 alpha/IL-1F1 MFI: 27.0 and 30.5 and 34.0
[3]
  IL-1 alpha/IL-1F1 Concentration: 330.9 pg/mL
  IL-1 alpha/IL-1F1 MFI: 25.3
[4]
  IL-1 alpha/IL-1F1 Concentration: 351.9 pg/ml and 320.3 pg/ml (2×)
  IL-1 alpha/IL-1F1 MFI: 26.0 and 25.0 (2×)
[5]
  IL-1 alpha/IL-1F1 Concentration: 351.9 pg/mL
  IL-1 alpha/IL-1F1 MFI: 26.0
[6]
  IL-1 alpha/IL-1F1 Concentration: 351.9 pg/mL and 367.6 pg/mL and 336.2 pg/mL
  IL-1 alpha/IL-1F1 MFI: 26.0 and 26.5 and 25.5
[7]
  IL-1 alpha/IL-1F1 Concentration: 465.1 pg/mL
  IL-1 alpha/IL-1F1 MFI: 29.7
[8]
  IL-1 alpha/IL-1F1 Concentration: 505.6 pg/ml and 444.9 pg/ml (2×)
  IL-1 alpha/IL-1F1 MFI: 31.0 and 29.0 (2×)
[9]
  IL-1 alpha/IL-1F1 Concentration: 434.5 pg/mL
  IL-1 alpha/IL-1F1 MFI: 28.7
[10]
  IL-1 alpha/IL-1F1 Concentration: 475.3 pg/mL and 444.9 pg/mL and 383.2 pg/mL
  IL-1 alpha/IL-1F1 MFI: 30.0 and 29.0 and 27.0
[11]
  IL-1 alpha/IL-1F1 Concentration: 424.2 pg/mL
  IL-1 alpha/IL-1F1 MFI: 28.3
[12]
  IL-1 alpha/IL-1F1 Concentration: 475.3 pg/mL and 414.2 pg/mL and 383.2 pg/mL
  IL-1 alpha/IL-1F1 MFI: 30.0 and 28.0 and 27.0

## CC(C)C[C@H](NC(=O)CNC(=O)[C@H](CC(=O)O)NC(=O)[C@H](CCC(N)=O)NC(=O)CNC(=O)[C@@H]1C[C@@H](O)CN1)C(=O)N[C@@H](C)C(=O)NCC(=O)N1CCC[C@H]1C(=O)N[C@@H](CCCCN)C(=O)O [YY-101] (H-[Hyp]GQDGLAGPK-OH; N-terminus and C-terminus assumed)
[1]
  IL-1 alpha/IL-1F1 Concentration: 424.2 pg/mL
  IL-1 alpha/IL-1F1 MFI: 28.3
[2]
  IL-1 alpha/IL-1F1 Concentration: 414.2 pg/mL and 383.2 pg/mL and 475.3 pg/mL
  IL-1 alpha/IL-1F1 MFI: 28.0 and 27.0 and 30.0
[3]
  IL-1 alpha/IL-1F1 Concentration: 479.4 pg/mL
  IL-1 alpha/IL-1F1 MFI: 30.2
[4]
  IL-1 alpha/IL-1F1 Concentration: 414.2 pg/ml (2×) and 609.8 pg/ml
  IL-1 alpha/IL-1F1 MFI: 28.0 (2×) and 34.5
[5]
  IL-1 alpha/IL-1F1 Concentration: 455.0 pg/mL
  IL-1 alpha/IL-1F1 MFI: 29.3
[6]
  IL-1 alpha/IL-1F1 Concentration: 460.1 pg/ml (2×) and 444.9 pg/ml
  IL-1 alpha/IL-1F1 MFI: 29.5 (2×) and 29.0
[7]
  IL-1 alpha/IL-1F1 Concentration: 485.3 pg/mL
  IL-1 alpha/IL-1F1 MFI: 30.3
[8]
  IL-1 alpha/IL-1F1 Concentration: 444.9 pg/mL and 475.3 pg/mL and 535.6 pg/mL
  IL-1 alpha/IL-1F1 MFI: 29.0 and 30.0 and 32.0
[9]
  IL-1 alpha/IL-1F1 Concentration: 429.2 pg/mL
  IL-1 alpha/IL-1F1 MFI: 28.5
[10]
  IL-1 alpha/IL-1F1 Concentration: 383.2 pg/mL and 398.7 pg/mL and 505.6 pg/mL
  IL-1 alpha/IL-1F1 MFI: 27.0 and 27.5 and 31.0
[11]
  IL-1 alpha/IL-1F1 Concentration: 449.6 pg/mL
  IL-1 alpha/IL-1F1 MFI: 29.2
[12]
  IL-1 alpha/IL-1F1 Concentration: 460.1 pg/mL and 505.6 pg/mL and 383.2 pg/mL
  IL-1 alpha/IL-1F1 MFI: 29.5 and 31.0 and 27.0
[13]
  IL-1 alpha/IL-1F1 Concentration: 155.5 pg/mL
  IL-1 alpha/IL-1F1 MFI: 20.0
[14]
  IL-1 alpha/IL-1F1 Concentration: 155.5 pg/mL
  IL-1 alpha/IL-1F1 MFI: 20.0
[15]
  IL-1 alpha/IL-1F1 Concentration: 155.5 pg/mL
  IL-1 alpha/IL-1F1 MFI: 20.0
[16]
  IL-1 alpha/IL-1F1 Concentration: 155.5 pg/mL
  IL-1 alpha/IL-1F1 MFI: 20.0
[17]
  IL-1 alpha/IL-1F1 Concentration: 92.0 pg/mL
  IL-1 alpha/IL-1F1 MFI: 18.3
[18]
  IL-1 alpha/IL-1F1 Concentration: 45.8 pg/mL and 138.1 pg/mL
  IL-1 alpha/IL-1F1 MFI: 17.0 and 19.5
[19]
  IL-1 alpha/IL-1F1 Concentration: 111.1 pg/mL
  IL-1 alpha/IL-1F1 MFI: 18.8
[20]
  IL-1 alpha/IL-1F1 Concentration: 138.1 pg/mL and 84.2 pg/mL
  IL-1 alpha/IL-1F1 MFI: 19.5 and 18.0
[21]
  IL-1 alpha/IL-1F1 Concentration: 84.2 pg/mL
  IL-1 alpha/IL-1F1 MFI: 18.0
[22]
  IL-1 alpha/IL-1F1 Concentration: 84.2 pg/mL
  IL-1 alpha/IL-1F1 MFI: 18.0
